Marks after values point to notes of the source that are not given here.
Legend:
xenograft tumor = experiment: Preclinical xenograft model studies: tumor growth; assay type: in vivo; details: preclinical xenograft models, well-tolerated doses
[1] = tested on: relapsed/refractory lymphoma and CLL; experiment: Phase 1 trial, lymphoma/CLL expansion cohort: best response; assay type: in vivo, human
Method: As part of a phase 1 single agent study in solid tumors, we administered Compound A to a dedicated expansion cohort of patients with relapsed/refractory lymphoma and CLL. The drug was administered orally daily, with continuous dosing in monthly cycles. A total of 15 patients were enrolled at three centers. An initial cohort of 3 patients was enrolled, followed by a safety review, with subsequent enrollment of the remaining 12 subjects. The median age of the patients was 66 years (range 28-81), 40% were male and 60% female.
This was a Phase 1, open-label, non-randomized trial of Compound A given orally as a single agent in subjects with lymphoma.
The key eligibility include the following: • Histologically confirmed diagnosis of relapsed or refractory lymphoma • Measureable disease • Adequate bone marrow function defined as: • ANC≥1000/mm^3 (CLL with ALC≥100,000/mm^3 required to have ANC≥500/mm^3) • Platelets≥30,000/mm^3 • Hemoglobin≥8 g/dL • Archival or fresh tumor tissue • No prior therapy with a selective PI3K inhibitor • Written informed consent. Results

[2] = tested on: downstream effectors of PI3K; experiment: Preclinical xenograft model studies: phosphorylation of downstream effectors of PI3K; assay type: in vivo; details: preclinical xenograft models, well-tolerated doses
[3] = tested on: downstream targets of PI3K, including pAKT and pEBP1; experiment: Phosphorylation of downstream targets of PI3K in vitro and in vivo
class I PI3K isoform β = class I PI3K isoform β (Homo sapiens, UniProt P42338); details: read-out: IC50 PI3K β
mTOR = mTOR (Homo sapiens, UniProt P42345); details: read-out: IC50 mTOR
class I PI3K isoform δ = class I PI3K isoform δ (Homo sapiens, UniProt O00329); details: read-out: IC50 PI3K δ
PI3K pathway = experiment: Phase 1 study in patients with solid tumors: pharmacodynamics in surrogate and tumor tissue; assay type: in vivo, human
Method: (§1) The maximum tolerated dose (MTD) was defined as 600 mg (capsule) once daily (QD) on either a 21/7 (administered continuously for 21 days followed by 7 days rest) or a continuous daily dosing schedule. […] A dose-escalation study of a tablet formulation is ongoing. Ten additional patients have been enrolled in the expansion cohort to better define the activity of Compound A, and further studies are warranted.

[4] = Phase 1 trial, lymphoma/CLL expansion cohort: plasma pharmacokinetics; assay type: in vivo, human; details: 600 mg oral daily, cycle 1, eight patients
Text: The secondary objectives were to determine (a) the plasma pharmacokinetics of Compound A; and (b) the pharmacodynamic effects of Compound A on tumor tissue.
There was inter-patient variability, and the geometric mean was 7.6 fold.

[5] = Phase 1 trial, lymphoma/CLL expansion cohort: safety and tolerability; assay type: in vivo, human
class I PI3K isoform γ = class I PI3K isoform γ (Homo sapiens, UniProt P48736); details: read-out: IC50 PI3K γ
[6] = Phase 1 study in solid tumors: maximum tolerated dose and dose-limiting toxicities; assay type: in vivo
Method: as §1

[7] = Hodgkin Lymphoma, n = 2 evaluated
[8] = nineteen subjects, 600 mg capsule daily
[9] = nineteen subjects, unrelated to study drug

class I PI3K isoform δ, sequence (O00329 whole entry, canonical isoform): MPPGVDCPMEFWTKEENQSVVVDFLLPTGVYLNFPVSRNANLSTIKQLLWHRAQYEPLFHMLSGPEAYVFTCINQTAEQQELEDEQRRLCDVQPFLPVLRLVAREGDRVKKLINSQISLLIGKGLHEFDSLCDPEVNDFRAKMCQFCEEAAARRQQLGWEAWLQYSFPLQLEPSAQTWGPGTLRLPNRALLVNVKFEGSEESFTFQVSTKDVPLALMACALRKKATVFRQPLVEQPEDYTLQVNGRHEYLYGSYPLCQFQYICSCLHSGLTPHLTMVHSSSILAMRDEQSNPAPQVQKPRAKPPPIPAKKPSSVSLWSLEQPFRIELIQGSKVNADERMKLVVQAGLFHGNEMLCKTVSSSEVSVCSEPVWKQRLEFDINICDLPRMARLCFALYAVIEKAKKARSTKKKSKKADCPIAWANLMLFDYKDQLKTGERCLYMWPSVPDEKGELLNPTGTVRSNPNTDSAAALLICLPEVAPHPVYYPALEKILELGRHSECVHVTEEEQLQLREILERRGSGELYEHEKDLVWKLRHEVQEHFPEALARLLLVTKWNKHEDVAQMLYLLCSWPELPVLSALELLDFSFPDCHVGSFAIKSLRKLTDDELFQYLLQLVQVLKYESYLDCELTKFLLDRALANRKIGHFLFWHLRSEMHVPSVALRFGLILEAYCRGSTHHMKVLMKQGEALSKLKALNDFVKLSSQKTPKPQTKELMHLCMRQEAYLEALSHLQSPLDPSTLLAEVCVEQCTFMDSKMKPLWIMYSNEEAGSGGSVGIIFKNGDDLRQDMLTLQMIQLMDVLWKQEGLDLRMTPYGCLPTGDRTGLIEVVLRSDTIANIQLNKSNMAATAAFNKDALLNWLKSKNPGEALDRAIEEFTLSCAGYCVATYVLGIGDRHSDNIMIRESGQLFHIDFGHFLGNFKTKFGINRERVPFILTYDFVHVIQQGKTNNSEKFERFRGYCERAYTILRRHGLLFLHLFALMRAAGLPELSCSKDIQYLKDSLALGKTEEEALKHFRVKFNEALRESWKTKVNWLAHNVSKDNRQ
class I PI3K isoform δ, sequence (P27986 whole entry partner, canonical isoform): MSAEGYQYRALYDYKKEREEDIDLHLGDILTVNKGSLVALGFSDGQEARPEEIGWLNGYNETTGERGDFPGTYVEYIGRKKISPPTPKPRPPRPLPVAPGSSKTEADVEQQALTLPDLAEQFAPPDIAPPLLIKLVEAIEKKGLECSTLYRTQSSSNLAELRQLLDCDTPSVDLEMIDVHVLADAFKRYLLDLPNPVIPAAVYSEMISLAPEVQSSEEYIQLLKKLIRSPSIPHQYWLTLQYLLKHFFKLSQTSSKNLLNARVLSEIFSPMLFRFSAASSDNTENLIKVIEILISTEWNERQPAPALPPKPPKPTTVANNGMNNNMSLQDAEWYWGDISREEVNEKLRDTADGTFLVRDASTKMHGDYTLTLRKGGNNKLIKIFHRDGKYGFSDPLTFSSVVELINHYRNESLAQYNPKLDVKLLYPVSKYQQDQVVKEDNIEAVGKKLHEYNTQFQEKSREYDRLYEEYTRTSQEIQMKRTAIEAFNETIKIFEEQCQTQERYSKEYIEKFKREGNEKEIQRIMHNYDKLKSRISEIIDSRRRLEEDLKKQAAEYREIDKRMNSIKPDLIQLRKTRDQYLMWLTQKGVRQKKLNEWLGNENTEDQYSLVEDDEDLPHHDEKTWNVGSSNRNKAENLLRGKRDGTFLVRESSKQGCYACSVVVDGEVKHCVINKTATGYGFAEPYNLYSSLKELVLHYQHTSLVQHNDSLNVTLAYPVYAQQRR
class I PI3K isoform γ, sequence (P48736 whole entry, canonical isoform): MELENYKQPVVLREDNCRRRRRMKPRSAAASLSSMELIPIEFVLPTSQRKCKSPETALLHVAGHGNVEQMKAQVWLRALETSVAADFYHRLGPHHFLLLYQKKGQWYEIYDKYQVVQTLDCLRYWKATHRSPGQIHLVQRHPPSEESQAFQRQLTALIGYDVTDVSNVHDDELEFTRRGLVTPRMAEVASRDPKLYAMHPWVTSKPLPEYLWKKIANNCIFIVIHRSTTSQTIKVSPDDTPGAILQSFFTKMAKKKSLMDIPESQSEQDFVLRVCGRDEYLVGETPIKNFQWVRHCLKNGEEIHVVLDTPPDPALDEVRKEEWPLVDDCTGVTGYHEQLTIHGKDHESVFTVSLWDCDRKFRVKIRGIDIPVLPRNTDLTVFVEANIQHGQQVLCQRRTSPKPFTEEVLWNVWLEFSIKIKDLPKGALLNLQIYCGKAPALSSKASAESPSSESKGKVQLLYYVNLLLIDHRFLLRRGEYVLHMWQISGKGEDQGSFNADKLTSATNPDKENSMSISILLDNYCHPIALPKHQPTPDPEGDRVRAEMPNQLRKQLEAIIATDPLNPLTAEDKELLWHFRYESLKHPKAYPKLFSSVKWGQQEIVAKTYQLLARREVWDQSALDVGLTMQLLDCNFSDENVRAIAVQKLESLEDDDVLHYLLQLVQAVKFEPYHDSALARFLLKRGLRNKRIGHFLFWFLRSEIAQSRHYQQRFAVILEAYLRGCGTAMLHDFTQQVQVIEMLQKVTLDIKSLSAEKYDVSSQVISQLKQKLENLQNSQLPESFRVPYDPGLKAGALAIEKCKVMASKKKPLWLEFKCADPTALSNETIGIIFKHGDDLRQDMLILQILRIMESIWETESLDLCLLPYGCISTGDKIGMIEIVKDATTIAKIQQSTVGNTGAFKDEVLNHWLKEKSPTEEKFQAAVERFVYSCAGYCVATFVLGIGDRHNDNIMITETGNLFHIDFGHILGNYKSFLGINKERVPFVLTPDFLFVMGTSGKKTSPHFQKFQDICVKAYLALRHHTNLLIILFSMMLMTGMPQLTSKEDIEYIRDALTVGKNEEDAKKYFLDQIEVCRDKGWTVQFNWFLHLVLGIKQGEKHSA
class I PI3K isoform β, sequence (P42338 whole entry, canonical isoform): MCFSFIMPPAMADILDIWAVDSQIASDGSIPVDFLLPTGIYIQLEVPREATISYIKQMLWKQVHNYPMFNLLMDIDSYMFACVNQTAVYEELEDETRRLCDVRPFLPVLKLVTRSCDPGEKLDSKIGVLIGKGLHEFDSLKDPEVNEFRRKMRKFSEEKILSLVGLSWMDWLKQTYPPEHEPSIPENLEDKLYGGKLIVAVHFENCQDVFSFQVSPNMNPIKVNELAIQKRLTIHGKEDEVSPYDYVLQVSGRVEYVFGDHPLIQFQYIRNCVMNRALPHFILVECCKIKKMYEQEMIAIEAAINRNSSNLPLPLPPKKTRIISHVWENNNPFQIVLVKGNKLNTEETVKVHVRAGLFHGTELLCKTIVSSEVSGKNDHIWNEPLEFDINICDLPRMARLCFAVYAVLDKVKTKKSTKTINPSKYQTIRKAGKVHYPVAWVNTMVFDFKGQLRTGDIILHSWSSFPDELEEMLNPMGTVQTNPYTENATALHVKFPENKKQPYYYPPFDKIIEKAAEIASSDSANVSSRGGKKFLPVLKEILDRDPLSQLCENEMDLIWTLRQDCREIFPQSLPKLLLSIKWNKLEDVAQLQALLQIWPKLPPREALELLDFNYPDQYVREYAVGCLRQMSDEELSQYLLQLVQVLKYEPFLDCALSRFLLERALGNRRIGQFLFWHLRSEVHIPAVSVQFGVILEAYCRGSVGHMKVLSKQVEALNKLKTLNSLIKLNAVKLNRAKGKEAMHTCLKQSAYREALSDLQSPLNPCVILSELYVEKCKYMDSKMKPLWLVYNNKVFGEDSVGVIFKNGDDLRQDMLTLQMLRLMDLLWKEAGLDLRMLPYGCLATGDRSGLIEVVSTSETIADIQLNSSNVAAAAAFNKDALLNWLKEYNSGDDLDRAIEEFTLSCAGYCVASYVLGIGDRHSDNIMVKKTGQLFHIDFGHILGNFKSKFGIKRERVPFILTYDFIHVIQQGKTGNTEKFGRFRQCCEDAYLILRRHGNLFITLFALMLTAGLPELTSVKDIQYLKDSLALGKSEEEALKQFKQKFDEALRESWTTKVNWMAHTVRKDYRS
class I PI3K isoform β, sequence (P27986 whole entry partner, canonical isoform): as the sequence (P27986 whole entry partner, canonical isoform) above

Compound: COc1ccc(Cl)c(Nc2nc3ccccc3nc2NS(=O)(=O)c2cccc(NC(=O)C(C)(C)N)c2)c1 [Compound A, N-(3-{[(3-{[2-chloro-5-(methoxy)phenyl]amino}quinoxalin-2-yl)amino]sulfonyl}phenyl)-2-methylalaninamide]
- tumor growth (xenograft tumor): inhibited tumor growth
- best response Stable Disease, number of patients ([1]; CLL/SLL, n = 5 evaluated, 600 mg capsule once daily, after cycle 2): 5^b
- best response Stable Disease, number of patients ([1]; Follicular Lymphoma, n = 2 evaluated, 600 mg capsule once daily): 2^
- best response Progressive Disease, number of patients [1, 7]: 1
- best response Stable Disease, number of patients [1, 7]: 1^e
- best response Stable Disease, number of patients ([1]; Transformed Lymphoma, n = 1 evaluated): 1^d
- best response Complete Response, number of patients ([1]; Waldenstrom's Macroglobulinemia, n = 1 evaluated, complete response at cycle 14): 1^c
- activity in patients ([1]; in vivo): active in CLL and low-grade lymphomas
- phosphorylation of downstream effectors of PI3K [2]: inhibited phosphorylation of downstream effectors of PI3K
- phosphorylation of downstream targets of PI3K, including pAKT and pEBP1 [3]: inhibits phosphorylation
- IC50 (class I PI3K isoform β): 383 nM
- IC50 (mTOR): > 15000 nM
- IC50 (class I PI3K isoform δ): 23 nM
- effect as monotherapy (PI3K pathway; human, in vivo): primarily anti-proliferative, not pro-apoptotic
- PI3K pathway activation in surrogate tissue (PBMC, hair follicle, skin) and tumor tissue (PI3K pathway; once daily, patients with solid tumors): inhibited PI3K pathway activation
- PI3K and ERK pathway inhibition (PI3K pathway; well-tolerated doses): robust PI3K and ERK pathway inhibition
- geometric mean accumulation (AUC) on day 28 [4]: 7.6 fold
- mean (CV %) accumulation (AUC) on day 28 ([4]; CV 88.1%): approximately 11.2 fold
- grade 3-4 thrombocytopenia ([5]; 1/15 patients, oral daily continuous dosing): 6.7%
- hyperglycemia, grade 1-2 event ([5]; 1 of 15 patients): 6.7%
- hyperglycemia, grade 3-4 event ([5]; 1 of 15 patients): 6.7%
- grade 3-4 neutropenia ([5]; 4/15 patients, oral daily continuous dosing): 26.7%
- tolerability in patients with lymphoma and CLL ([5]; in vivo): well-tolerated
- Patients requiring dose modification due to toxicity: Hyperglycemia ([5]; nineteen subjects): 1 (5) n (%)
- Patients requiring dose modification due to toxicity: Neutropenia ([5]; nineteen subjects): 2 (11) n (%)
- Patients requiring dose modification due to toxicity: Rash ([5]; nineteen subjects): 1 (5) n (%)
- Abdominal Pain, All Adverse Events, All Grades [5, 8]: 4 (21) n (%)
- Abdominal Pain, All Adverse Events, Grade ≥3 [5, 8]: 1 (5) n (%)
- Abdominal Pain, Related Adverse Events, All Grades [5, 8]: 2 (11) n (%)
- Abdominal Pain, Related Adverse Events, Grade ≥3 [5, 8]: 0 n (%)
- Anemia, All Adverse Events, All Grades [5, 8]: 4 (21) n (%)
- Anemia, All Adverse Events, Grade ≥3 [5, 8]: 3 (16) n (%)
- Anemia, Related Adverse Events, All Grades [5, 8]: 1 (5) n (%)
- Anemia, Related Adverse Events, Grade ≥3 [5, 8]: 0 n (%)
- Cough, All Adverse Events, All Grades [5, 8]: 6 (32) n (%)
- Cough, All Adverse Events, Grade ≥3 [5, 8]: 1 (5) n (%)
- Cough, Related Adverse Events, All Grades [5, 8]: 0 n (%)
- Cough, Related Adverse Events, Grade ≥3 [5, 8]: 0 n (%)
- Diarrhea, All Adverse Events, All Grades [5, 8]: 12 (63) n (%)
- Diarrhea, All Adverse Events, Grade ≥3 [5, 8]: 1 (5) n (%)
- Diarrhea, Related Adverse Events, All Grades [5, 8]: 7 (37) n (%)
- Diarrhea, Related Adverse Events, Grade ≥3 [5, 8]: 1 (5) n (%)
- Dyspnea, All Adverse Events, All Grades [5, 8]: 4 (21) n (%)
- Dyspnea, All Adverse Events, Grade ≥3 [5, 8]: 1 (5) n (%)
- Dyspnea, Related Adverse Events, All Grades [5, 8]: 0 n (%)
- Dyspnea, Related Adverse Events, Grade ≥3 [5, 8]: 0 n (%)
- Fatigue, All Adverse Events, All Grades [5, 8]: 5 (26) n (%)
- Fatigue, All Adverse Events, Grade ≥3 [5, 8]: 0 n (%)
- Fatigue, Related Adverse Events, All Grades [5, 8]: 0 n (%)
- Fatigue, Related Adverse Events, Grade ≥3 [5, 8]: 0 n (%)
- Hyperglycemia, All Adverse Events, All Grades [5, 8]: 4 (21) n (%)
- Hyperglycemia, All Adverse Events, Grade ≥3 [5, 8]: 1 (5) n (%)
- Hyperglycemia, Related Adverse Events, All Grades [5, 8]: 4 (21) n (%)
- Hyperglycemia, Related Adverse Events, Grade ≥3 [5, 8]: 1 (5) n (%)
- Neutropenia, All Adverse Events, All Grades [5, 8]: 5 (26) n (%)
- Neutropenia, All Adverse Events, Grade ≥3 [5, 8]: 5 (26) n (%)
- Neutropenia, Related Adverse Events, All Grades [5, 8]: 4 (21) n (%)
- Neutropenia, Related Adverse Events, Grade ≥3 [5, 8]: 4 (21) n (%)
- Pruritus, All Adverse Events, All Grades [5, 8]: 4 (21) n (%)
- Pruritus, All Adverse Events, Grade ≥3 [5, 8]: 1 (5) n (%)
- Pruritus, Related Adverse Events, All Grades [5, 8]: 2 (11) n (%)
- Pruritus, Related Adverse Events, Grade ≥3 [5, 8]: 0 n (%)
- Pyrexia, All Adverse Events, All Grades [5, 8]: 5 (26) n (%)
- Pyrexia, All Adverse Events, Grade ≥3 [5, 8]: 1 (5) n (%)
- Pyrexia, Related Adverse Events, All Grades [5, 8]: 1 (5) n (%)
- Pyrexia, Related Adverse Events, Grade ≥3 [5, 8]: 0 n (%)
- Rash, All Adverse Events, All Grades [5, 8]: 4 (21) n (%)
- Rash, All Adverse Events, Grade ≥3 [5, 8]: 1 (5) n (%)
- Rash, Related Adverse Events, All Grades [5, 8]: 3 (16) n (%)
- Rash, Related Adverse Events, Grade ≥3 [5, 8]: 1 (5) n (%)
- Patients requiring dose modification due to toxicity ([5]; nineteen subjects, total): 7 (37) n (%)
- Patients requiring dose modification due to toxicity: More than 1 event in the same patient ([5]; nineteen subjects, diarrhea, fever/pneumonia, fever/pneumonia/sepsis/ileus/fluid overload): 1 (5) n (%)
- Patients requiring dose modification due to toxicity: Fever/hypotension [5, 9]: 1 (5) n (%)
- Patients requiring dose modification due to toxicity: Respiratory infection [5, 9]: 1 (5) n (%)
- IC50 (class I PI3K isoform γ): 36 nM
- maximum tolerated dose (MTD) ([6]; capsule, once daily (QD), 21/7 or continuous daily dosing schedule): 600 mg
- dose-limiting toxicities ([6]; human, in vivo): Grade 3 rash and Grade 3 hypersensitivity
